Results published in patent US12268689B2, “Eutectic form A of Elagolix and pyrimethamine, preparation method therefor and use thereof” (Shenzhen Rentai Pharmatech Ltd., priority 2019, dated 2025).
Entries after “also recorded” stand apart in the source; their conditions may differ.

Tests used:
Format in all cases: physicochemical
[1] = High temperature stability test (60° C., 30 days; HPLC purity and XRPD)
Protocol: (§1) High temperature stability: samples of a raw drug of Elagolix sodium and an eutectic form A formed by Elagolix and pyrimethamine (prepared in Comparative example 1 and Example 1, respectively) were taken and separately placed at 60° C. for 30 days, sampling was conducted at fixed time points on day 5, day 10 and day 30, respectively to determine the XRPD pattern of the eutectic form A, and the content of the raw drug of Elagolix sodium and the eutectic form A, and the determined XRPD pattern of the eutectic form A, and the determined content of the raw drug of Elagolix sodium and the eutectic form A were compared with those on day 0.
(§2) The specific stability test method can refer to the method in Appendix XIC of Part II of Chinese Pharmacopoeia (2015 Edition); and the purity was detected by an HPLC method, and can be determined by an external standard method with reference to the method in Appendix VD of Chinese Pharmacopoeia (2015 Edition) by using the sample on day 0 as a control.
(§3) Operating Conditions for HPLC
(§4) • Instrument: high performance liquid chromatograph (model: Agilent Technologies 1260) • Chromatographic column: shiseido CAPCELL PAK C18 column (5 μm, 250 mm×4.6 mm) Mobile Phase Composition and Gradient Elution Procedure:
(§5) • Detection wavelength: 254 nm • Flow rate: 1 mL/min • Injection volume: 10 μL • Column temperature: 30° C.

[2] = High humidity stability test (25° C., 92.5% RH, 30 days; HPLC purity and XRPD)
Protocol: as §1, with “humidity” for “temperature”, “25°” for “60°”, “C. at 92.5% RH” for “C.”
as §2, §3, §4, §5

[3] = Light stability test (25° C., 4500 Lux, 30 days; HPLC purity and XRPD); conditions: light conditions
Protocol: Light stability: samples of a raw drug of Elagolix sodium and an eutectic form A formed by Elagolix and pyrimethamine (prepared in Comparative example 1 and Example 1, respectively) were taken and separately placed at 25° C. under light conditions of 4500 Lux for 30 days, sampling was conducted at fixed time points on day 5, day 10 and day 30, respectively to determine the XRPD pattern of the eutectic form A, and the content of Elagolix in the raw drug of Elagolix sodium and the eutectic form A, and the determined XRPD pattern of the eutectic form A, and the determined content of Elagolix in the raw drug of Elagolix sodium and the eutectic form A were compared with those on day 0.
as §2, §3
• Instrument: high performance liquid chromatograph (model: Agilent Technologies 1260) • Chromatographic column: shiseido CAPCELL PAK C18 column (5 μm, 250 mm×4.6 mm) Mobile Phase Composition and Gradient Elution Procedure: […]

COc1cccc(-c2c(C)n(Cc3c(F)cccc3C(F)(F)F)c(=O)n(C[C@H](NCCCC(=O)O)c3ccccc3)c2=O)c1F [Elagolix sodium]
not good; also recorded: unstable: High temperature stability (in words) [1] | High humidity stability (in words) [2] | Light stability (in words) [3]
